# In patent publication US12331322B2, “Agent for accelerating growth of pluripotent stem cells” (Oriental Yeast Co., Ltd., priority 2017, dated 2025):
# Tests used:
# [1] = system: iPS cells (201B7); assay: WST assay, growth of iPS cells (201B7) in culture medium with β-NMN or NAM; type: cell-based, human; conditions: for absorbance values at 450 nm (ref. 595 nm), WST assay, compared with basal medium: Example 2, FIG. 2, 0.2 or 0.4 mM added to E8 medium
# Protocol: As iPS cells, 201B7 line which is human iPS cells was used. For iPS cells, an E8 medium (LTC) containing 19.4 mg/L of insulin, 10.7 mg/L of transferrin, 100 μg/L of bFGF, 2 μg/L of TGFβ, 14 μg/L of sodium selenite, 64 mg/L of ascorbic acid, and 543 mg/L of NaHCO3 in DMEM/F12 was used as the basal medium. First, iPS cells cultured in the basal medium were separated from a culture vessel by a cell-peeling solution and recovered. The recovered cells were counted and seeded in each well of a Matrigel-coated 96-well plate at 1000 to 2000 cells/well. At this time, a ROCK inhibitor was added to each well. The 96-well plate was cultured at 37° C. for 1 day to allow the cells to adhere, and then the medium containing the ROCK inhibitor was removed from each well, the medium was replaced with a medium obtained by adding, to the basal medium, β-NMN (Oriental Yeast Co., Ltd.) so that a final concentration became 0 to 2 mM, and culturing was performed for 3 to 4 days. Thereafter, a growth ability of cells surviving in each well was measured by water-soluble tetrazolium salts (WST) assay. Specifically, after adding WST-1 (manufactured by Nacalai Tesque) to each well and incubating at 37° C. for 1 to 4 hours, absorbance values at 450 nm (ref. 595 nm) were measured using a microplate reader (manufactured by BMG LABTECH). The term “absorbance value (450 to 595 nm)” is an absorbance value at 450 nm using an absorbance value at 595 nm as a reference value, and is specifically a value obtained by subtracting an absorbance value at 595 nm from an absorbance value at 450 nm. Specifically, iPS cells were cultured and the WST assay was performed in the same manner as in Example 1 except that the medium added after removing the medium containing the ROCK inhibitor was changed to a culture medium to which β-NMN was added so that a final concentration became 0, 0.2, or 0.4 mM, or a culture medium to which NAM was added so that a final concentration became 0, 0.2, or 0.4 mM. The iPS cells cultured in the basal medium used in Example 1 were separated from a culture vessel by a cell-peeling solution and recovered. The recovered cells were counted and seeded in each well of a Matrigel-coated 96-well plate at 1000 to 2000 cells/well. At this time, a ROCK inhibitor and β-NMN having a final concentration of 0 to 1 mM were added to each well. The cells in 96-well plate was cultured at 37° C. for 1 day to allow the cells to adhere, and then the medium containing the ROCK inhibitor was removed from each well, the medium was replaced with a culture medium obtained by adding, to the basal medium, β-NMN so that a final concentration became 0 to 1 mM, and culturing was performed for 3 to 4 days. Thereafter, WST assay was performed in the same manner as in Example 1. The results of measuring absorbance values at 450 nm (ref. 595 nm) of each cells cultured in a medium to which both ROCK inhibitor and β-NMN were added are shown in FIG. 4.
# [2] = system: iPS cells (253G1); assay: WST assay, growth of iPS cells (253G1) in culture medium with β-NMN or NAM; type: cell-based; conditions: for absorbance values at 450 nm (ref. 595 nm), WST assay, compared with basal medium: Example 3, FIG. 3, added to E8 medium
# Protocol: First, iPS cells cultured in the basal medium were separated from a culture vessel by a cell-peeling solution and recovered. The recovered cells were counted and seeded in each well of a Matrigel-coated 96-well plate at 1000 to 2000 cells/well. At this time, a ROCK inhibitor was added to each well. The 96-well plate was cultured at 37° C. for 1 day to allow the cells to adhere, and then the medium containing the ROCK inhibitor was removed from each well, the medium was replaced with a medium obtained by adding, to the basal medium, β-NMN (Oriental Yeast Co., Ltd.) so that a final concentration became 0 to 2 mM, and culturing was performed for 3 to 4 days. Thereafter, a growth ability of cells surviving in each well was measured by water-soluble tetrazolium salts (WST) assay. Specifically, after adding WST-1 (manufactured by Nacalai Tesque) to each well and incubating at 37° C. for 1 to 4 hours, absorbance values at 450 nm (ref. 595 nm) were measured using a microplate reader (manufactured by BMG LABTECH). The term “absorbance value (450 to 595 nm)” is an absorbance value at 450 nm using an absorbance value at 595 nm as a reference value, and is specifically a value obtained by subtracting an absorbance value at 595 nm from an absorbance value at 450 nm. iPS cells were cultured in culture medium containing β-NMN or NAM, and the effects of β-NMN and NAM on growth were compared. As iPS cells, 253G1 line was used. Specifically, iPS cells were cultured and WST assay was performed in the same manner as in Example 1 except that 253G1 line was used instead of 201B7 line.
# [3] = system: Human mesenchymal stem cells (human MSCs); assay: WST assay, proliferative activity of human mesenchymal stem cells; type: cell-based; conditions: 72 hours
# Protocol: Human MSCs purchased from Lonza were used. As a basal medium for human MSCs, a dedicated maintenance medium purchased from Lonza was used. Human MSCs were seeded in 96-well plates (Nunc) at 2×10^3 cells/well (n=3 to 4). They were cultured at 37° C. in a CO2 incubator to allow them to adhere, and then β-NMN (manufactured by Oriental Yeast Co., Ltd.) was added so that a final concentration became 1.0, 0.1, 0.01, or 0.001 mM, and culture was further performed at 37° C. in a CO2 incubator for 72 hours. Thereafter, proliferative activity of cells in each well was measured with WST assay. Specifically, after adding a viable cell count reagent SF (Nacalai Tesque) to each well and incubating at 37° C. for 1 to 4 hours, absorbance at 450 nm was measured with the reference wavelength at 620 nm using a microplate reader (absorbance values at 450 nm (ref. 620 nm) (BMG LABTECH). The term “absorbance values at 450 nm (ref. 620 nm)” is an absorbance value at 450 nm using an absorbance value at 620 nm as a reference value, and is specifically a value obtained by subtracting an absorbance value at 620 nm from an absorbance value at 450 nm. [0045]
# [4] = system: iPS cells (201B7); assay: Flow cytometry of undifferentiated markers (SSEA4, low sulfated keratan sulfate) in iPS cells (201B7); type: cell-based, human; conditions: 5 or more passages, vs 0 mM
# Protocol: The differentiation potential of iPS cells maintained and grown in the presence of β-NMN was confirmed. As iPS cells, a 201B7 line was used. Specifically, iPS cells were seeded in a 35 mm dish coated with Matrigel (Corning) at 1.5×10^4 cells/dish. As culture medium in which β-NMN was added to a basal medium (E8 medium) of iPS cells so that a final concentration became 0, 0.25, or 1 mM was used. At the time of seeding, Rho-dependent apoptosis was suppressed using a culture medium to which a Rock inhibitor was added so that a final concentration became 10 μM. The medium was replaced daily and the cells were passaged on day 5 and 6. iPS cells cultured for 5 or more passages in the medium to which β-NMN was added were stained with each of antibodies against SSEA4 and against low sulfated keratan sulfate which are undifferentiated markers, and cells expressing the undifferentiated markers were analyzed with a flow cytometer.
# [5] = system: iPS cells (201B7); assay: Alkaline phosphatase measurement test (undifferentiated marker) on iPS cells (201B7); type: cell-based, human; conditions: Example 4, FIG. 5, β-NMN up to 1 mM added with ROCK inhibitor, vs β-NMN-free medium
# Protocol: iPS cells were cultured in a culture medium containing β-NMN, and the effects of β-NMN on differentiation potential and growth were examined. As iPS cells, a 201B7 line was used. The differentiation potential was examined using the enzyme activity of alkaline phosphatase, which is an undifferentiated marker, as an indicator. First, the iPS cells cultured in the basal medium used in Example 1 were separated from a culture vessel by a cell-peeling solution and recovered. The recovered cells were counted and seeded in each well of a Matrigel-coated 96-well plate at 2000 cells/well. At this time, the ROCK inhibitor and β-NMN having a final concentration of 0 to 1 mM were added to each well. The cells in 96-well plate was cultured at 37° C. for 1 day to allow the cells to adhere, and then the medium containing the ROCK inhibitor was removed from each well, the medium was replaced with a medium obtained by adding, to the basal medium, β-NMN so that a final concentration became 0 to 1 mM, and culturing was performed for 3 to 4 days. During this period, the medium was replaced daily. […] After drying the wells, a bicarbonate buffer containing […], which is an alkaline phosphatase measurement reagent, was added and incubated at 37° C. for 30 minutes, and then absorbance at 405 nm was measured using a microplate reader.
SMILES,"absorbance values at 450 nm (ref. 595 nm), WST assay, compared with basal medium [1]","absorbance values at 450 nm (ref. 595 nm), WST assay, compared with basal medium [2]","absorbance values at 450 nm (ref. 595 nm), WST assay ([1]; Example 1, FIG. 1, medium containing 0.1 mM or more of β-NMN vs β-NMN-free medium, 3 to 4 days)","absorbance values at 450 nm (ref. 595 nm), WST assay ([1]; Example 1, FIG. 1, β-NMN 0.8 mM or more)","absorbance values at 450 nm (ref. 595 nm), WST assay ([1]; Example 1, FIG. 1, β-NMN 0.1 to 0.2 mM)","absorbance values at 450 nm (ref. 595 nm), WST assay ([1]; Example 1, FIG. 1, β-NMN 0.2 to 0.6 mM)","absorbance values at 450 nm (ref. 595 nm), WST assay, β-NMN-added medium compared with NAM-added medium ([1]; Example 2, FIG. 2, final concentration 0.2 mM and 0.4 mM)","absorbance values at 450 nm (ref. 595 nm), WST assay (effect on growth) ([1]; Example 4, FIG. 4, β-NMN 0 to 1 mM added together with ROCK inhibitor at seeding and afterwards)","absorbance values at 450 nm (ref. 595 nm), WST assay, β-NMN-added medium compared with NAM-added medium ([2]; Example 3, FIG. 3, final concentration 0.2 mM and 0.4 mM)","proliferative activity of human MSCs (absorbance, WST assay), overall ([3]; addition of β-NMN 0.001 to 1.0 mM)",Absorbance value at450 nm (ref. 620 nm) ([3]; β-NMN concentration 0.001 mM),Absorbance value at450 nm (ref. 620 nm) ([3]; β-NMN concentration 0.01 mM),Absorbance value at450 nm (ref. 620 nm) ([3]; β-NMN concentration 0.1 mM),Absorbance value at450 nm (ref. 620 nm) ([3]; β-NMN concentration 1 mM),"Expression of SSEA4 (flow cytometry, anti-SSEA4 antibody) ([4]; Example 6, FIGS. 6 to 8, 0.25 mM or 1 mM of β-NMN)","Expression of low sulfated keratan sulfate (flow cytometry, R10G antibody) ([4]; Example 6, FIGS. 9 to 11, 0.25 mM or 1 mM of β-NMN)","absorbance values at 405 nm, alkaline phosphatase measurement test [5]"
"NC(=O)c1cccnc1 [NAM, nicotinamide, reference compound]",higher absorbance values than cells cultured in the basal medium,slightly higher absorbance value than that of the cells cultured in the basal medium,–,–,–,–,–,–,–,–,–,–,–,–,–,–,–
"NC(=O)c1ccc[n+]([C@@H]2O[C@H](COP(=O)([O-])O)[C@@H](O)[C@H]2O)c1 [β-NMN, β-nicotinamide mononucleotide]",higher absorbance values than cells cultured in the basal medium,higher absorbance value than that of the cell cultured in the basal medium,greater than that of the cells cultured in the β-NMN-free medium,tended to slightly decrease,increased in a concentration-dependent manner,the absorbance value was the same,significantly higher than that of the cells cultured in the NAM-added medium,growth-accelerating effect on iPS cells was obtained in a β-NMN concentration-dependent manner,significantly higher than that of the cells cultured in the NAM-added medium,increased the absorbance value and accelerated proliferative activity,0.573 ± 0.0312,0.604 ± 0.0587,0.634 ± 0.0411,0.615 ± 0.0340,maintained,maintained,higher than that of the cells cultured in the β-NMN-free medium
